Experimental data as given in PubChem BioAssay AID330 (DTP/NCI, 2004).
Several values for one entry are separate records, joined by “and”; a condition that tells them apart may be missing. Identical values can stand only once. Inconclusive results and toxic doses are left out.

Test system: P388 leukemia ip, CD2F1 mice, survival T/C
Experiment: NCI In Vivo Anticancer Drug Screen. Data for tumor model P388 Leukemia (intraperitoneal) in CD2F1 (CDF1) mice
Settings: endpoint: median survival time, higher = longer survival
Method in brief: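 Mice carrying the transplanted tumor received test compound or vehicle. Survival was recorded in each group, and the value is the treated-group measurement divided by that of the vehicle-treated control group.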

[1] = dose: 50.0 mg/kg/injection, schedule: Q01DX005 (ip), vehicle: saline with Tween-80
[2] = dose: 100.0 mg/kg/injection, schedule: Q01DX005 (ip), vehicle: saline with Tween-80
[3] = dose: 200.0 mg/kg/injection, schedule: Q01DX005 (ip), vehicle: saline with Tween-80
[4] = dose: 25.0 mg/kg/injection, schedule: Q01DX009 (ip), vehicle: saline with Tween-80
[5] = dose: 50.0 mg/kg/injection, schedule: Q01DX005 (ip), vehicle: Klucel (hydroxypropylcellulose) (HPC)
[6] = dose: 100.0 mg/kg/injection, schedule: Q01DX005 (ip), vehicle: Klucel (hydroxypropylcellulose) (HPC)
[7] = dose: 200.0 mg/kg/injection, schedule: Q01DX005 (ip), vehicle: Klucel (hydroxypropylcellulose) (HPC)
[8] = dose: 100.0 mg/kg/injection, schedule: Q04DX002 (ip), vehicle: saline with Tween-80
[9] = dose: 200.0 mg/kg/injection, schedule: Q04DX002 (ip), vehicle: saline with Tween-80
[10] = dose: 400.0 mg/kg/injection, schedule: Q04DX002 (ip), vehicle: saline with Tween-80
[11] = dose: 100.0 mg/kg/injection, schedule: Q01DX001 (ip), vehicle: Klucel (hydroxypropylcellulose) (HPC)
[12] = dose: 200.0 mg/kg/injection, schedule: Q01DX001 (ip), vehicle: Klucel (hydroxypropylcellulose) (HPC)
[13] = dose: 100.0 mg/kg/injection, schedule: Q04DX003 (ip), vehicle: Klucel (hydroxypropylcellulose) (HPC)
[14] = dose: 200.0 mg/kg/injection, schedule: Q04DX003 (ip), vehicle: Klucel (hydroxypropylcellulose) (HPC)
[15] = dose: 400.0 mg/kg/injection, schedule: Q04DX003 (ip), vehicle: Klucel (hydroxypropylcellulose) (HPC)

## COc1cccc2c1C(=O)c1c(O)c3c(c(O)c1C2=O)C[C@@](O)(/C(C)=N/NC(N)=S)C[C@@H]3OC1CC(N)C(O)C(C)O1 (stereo partly specified)
dose: 3.13 mg/kg/injection, schedule: Q04DX003 (ip), vehicle: water
  T/C: 108 % of control
dose: 6.25 mg/kg/injection, schedule: Q04DX003 (ip), vehicle: water
  T/C: 109 % of control
dose: 12.5 mg/kg/injection, schedule: Q04DX003 (ip), vehicle: water
  T/C: 112 % of control and 117 % of control
dose: 25.0 mg/kg/injection, schedule: Q04DX003 (ip), vehicle: water
  T/C: 117 % of control and 123 % of control
dose: 50.0 mg/kg/injection, schedule: Q04DX003 (ip), vehicle: water
  T/C: 117 % of control and 122 % of control
dose: 200.0 mg/kg/injection, schedule: Q04DX003 (ip), vehicle: water
  T/C: 155 % of control

## CCN(CC)c1ccc(NC2=CC(=O)C(Nc3ccc(N(CC)CC)cc3)=CC2=O)cc1
[1]
  T/C: 91 % of control
[2]
  T/C: 89 % of control
[3]
  T/C: 89 % of control

## CCCCCCCCCCCC(=O)CCCC
dose: 100.0 mg/kg/injection, schedule: Q04DX003 (ip), vehicle: other
  T/C: 104 % of control
dose: 200.0 mg/kg/injection, schedule: Q04DX003 (ip), vehicle: other
  T/C: 113 % of control
dose: 400.0 mg/kg/injection, schedule: Q04DX003 (ip), vehicle: other
  T/C: 118 % of control

## CCC[C@@H]1[C@@H](CCC)N1C(=N)OCC
dose: 12.5 mg/kg/injection, schedule: Q01DX005 (ip), vehicle: suspension in saline
  T/C: 99 % of control
dose: 25.0 mg/kg/injection, schedule: Q01DX005 (ip), vehicle: suspension in saline
  T/C: 106 % of control
dose: 50.0 mg/kg/injection, schedule: Q01DX005 (ip), vehicle: saline
  T/C: 103 % of control
dose: 50.0 mg/kg/injection, schedule: Q01DX005 (ip), vehicle: suspension in saline
  T/C: 106 % of control

## COc1ccccc1N=NC(C#N)C(N)=O (stereo unspecified)
[4]
  T/C: 102 % of control
dose: 50.0 mg/kg/injection, schedule: Q01DX009 (ip), vehicle: saline with Tween-80
  T/C: 101 % of control

## C=Cc1c(Cl)nc(C)c(C)c1-c1ccc(OC)c(OC)c1OCc1ccccc1
[5]
  T/C: 92 % of control
[6]
  T/C: 104 % of control
[7]
  T/C: 91 % of control

## COC1(OC)C2C(Br)=C(Br)C1C1CCC/C=C\CC12 (stereo unspecified)
[8]
  T/C: 103 % of control
[9]
  T/C: 103 % of control
[10]
  T/C: 109 % of control

## O=S1(=O)C=C(c2ccccc2)S(=O)(=O)C=C1c1ccccc1
dose: 100.0 mg/kg/injection, schedule: Q04DX003 (ip), vehicle: saline with Tween-80
  T/C: 102 % of control
dose: 200.0 mg/kg/injection, schedule: Q04DX003 (ip), vehicle: saline with Tween-80
  T/C: 96 % of control

## CC(NC(=O)C(Cc1ccc(OC(=O)OCc2ccccc2)cc1)NC(=O)OCc1ccccc1)C(=O)OCc1ccccc1 (stereo unspecified)
[1]
  T/C: 96 % of control
[2]
  T/C: 92 % of control

## CSC(=S)/N=c1/sccn1C
dose: 25.0 mg/kg/injection, schedule: Q04DX002 (ip), vehicle: saline with Tween-80
  T/C: 100 % of control
dose: 50.0 mg/kg/injection, schedule: Q04DX002 (ip), vehicle: saline with Tween-80
  T/C: 100 % of control
[8]
  T/C: 99 % of control

## OC1COC(c2nn(-c3ccccc3)c3nc4ccc(Cl)cc4nc23)C1O (stereo unspecified)
[8]
  T/C: 107 % of control
[9]
  T/C: 97 % of control
[10]
  T/C: 95 % of control

## C[C@]12CC[C@H]3[C@@H](CC=C4C[C@@H](O)CC[C@@]43C)[C@@H]1CC[C@@H]2N(CCO)CCO
[5]
  T/C: 96 % of control
[6]
  T/C: 100 % of control
[7]
  T/C: 97 % of control

## CCS[C@@H](C(O)C(O)C(O)C(O)CO)n1cnc2c(Cl)ncnc21 (stereo partly specified)
[1]
  T/C: 98 % of control
[2]
  T/C: 102 % of control
[3]
  T/C: 96 % of control

## CC(=O)[C-](C)C(C)=O.CC(=O)[C-](C)C(C)=O.CC(=O)[C-](C)C(C)=O.[Ru+3]
[1]
  T/C: 100 % of control
[2]
  T/C: 113 % of control
[3]
  T/C: 90 % of control

## COC(=O)/C(=C(\C)C=O)N1C(=O)C(NC(=O)c2ccccc2)C1SSc1nc2ccccc2s1 (stereo unspecified)
[11]
  T/C: 108 % of control
[12]
  T/C: 95 % of control
dose: 400.0 mg/kg/injection, schedule: Q01DX001 (ip), vehicle: Klucel (hydroxypropylcellulose) (HPC)
  T/C: 112 % of control

## OCCN1C(c2ccccc2)=CN2C=CSC21 (stereo unspecified)
[8]
  T/C: 97 % of control
[9]
  T/C: 94 % of control
[10]
  T/C: 97 % of control

## CSC(SC)(SC)c1cc(-c2c(Cl)cccc2Cl)no1
[1]
  T/C: 93 % of control
[2]
  T/C: 102 % of control
[3]
  T/C: 93 % of control

## O=C(NC(CCS(=O)(=O)NO)C(=O)OCc1ccccc1)OCc1ccccc1 (stereo unspecified)
dose: 12.5 mg/kg/injection, schedule: Q01DX009 (ip), vehicle: other
  T/C: 100 % of control
dose: 25.0 mg/kg/injection, schedule: Q01DX009 (ip), vehicle: other
  T/C: 95 % of control
dose: 50.0 mg/kg/injection, schedule: Q01DX009 (ip), vehicle: other
  T/C: 109 % of control
dose: 100.0 mg/kg/injection, schedule: Q01DX009 (ip), vehicle: other
  T/C: 95 % of control
dose: 200.0 mg/kg/injection, schedule: Q01DX009 (ip), vehicle: other
  T/C: 92 % of control

## COC(=O)/C1=C/N(C=O)CCCC2OC12C(=O)OC (stereo unspecified)
[11]
  T/C: 100 % of control
[12]
  T/C: 100 % of control

## CC12CCC(c3cn[nH]c31)C2(C)C (stereo unspecified)
dose: 60.0 mg/kg/injection, schedule: Q01DX005 (ip), vehicle: Klucel (hydroxypropylcellulose) (HPC)
  T/C: 100 % of control
dose: 120.0 mg/kg/injection, schedule: Q01DX005 (ip), vehicle: Klucel (hydroxypropylcellulose) (HPC)
  T/C: 100 % of control
dose: 240.0 mg/kg/injection, schedule: Q01DX005 (ip), vehicle: Klucel (hydroxypropylcellulose) (HPC)
  T/C: 100 % of control

## O=C(/C=C/c1ccccc1)NCCC1(O)C(=O)Nc2ccccc21 (stereo unspecified)
dose: 25.0 mg/kg/injection, schedule: Q01DX005 (ip), vehicle: Klucel (hydroxypropylcellulose) (HPC)
  T/C: 102 % of control
[5]
  T/C: 100 % of control
[6]
  T/C: 90 % of control
[7]
  T/C: 88 % of control

## C[As](C)SC(CO)C1OC2OC(C)(C)OC2C1O (stereo unspecified)
dose: 50.0 mg/kg/injection, schedule: Q01DX009 (ip), vehicle: saline + alcohol
  T/C: 108 % of control

## CCC1(O)C(=O)OCc2c1cc1n(c2=O)Cc2cc3ccccc3nc2-1 (stereo unspecified)
dose: 2.0 mg/kg/injection, schedule: Q04DX003 (ip), vehicle: other
  T/C: 150 % of control and 153 % of control
dose: 4.0 mg/kg/injection, schedule: Q04DX003 (ip), vehicle: other
  T/C: 167 % of control and 178 % of control
dose: 8.0 mg/kg/injection, schedule: Q04DX003 (ip), vehicle: other
  T/C: 222 % of control and 229 % of control
dose: 16.0 mg/kg/injection, schedule: Q04DX003 (ip), vehicle: other
  T/C: 118 % of control

## CCCCc1nc2cc(CN3CCN(C(c4ccccc4)c4ccccc4)CC3)ccc2n1CC
dose: 6.25 mg/kg/injection, schedule: Q01DX009 (ip), vehicle: saline with Tween-80
  T/C: 95 % of control
dose: 12.5 mg/kg/injection, schedule: Q01DX009 (ip), vehicle: saline with Tween-80
  T/C: 101 % of control
[4]
  T/C: 100 % of control

## CC(=Nc1ccc(F)cc1)C1C(=O)c2ccccc2C1=O
[5]
  T/C: 100 % of control
[6]
  T/C: 100 % of control
[7]
  T/C: 100 % of control

## C=COC(=O)CCCCCCCC
[13]
  T/C: 103 % of control
[14]
  T/C: 105 % of control
[15]
  T/C: 95 % of control

## CC(=O)Nn1nnc2ccccc2c1=O
[1]
  T/C: 97 % of control
[2]
  T/C: 110 % of control
[3]
  T/C: 110 % of control

## CN(N=O)C1=NC2(CCCCC2)P(=O)(NNc2ncccn2)O1 (stereo unspecified)
dose: 60.0 mg/kg/injection, schedule: Q01DX005 (ip), vehicle: saline
  T/C: 101 % of control
dose: 120.0 mg/kg/injection, schedule: Q01DX005 (ip), vehicle: saline
  T/C: 102 % of control

## COc1ccc(C(c2c(O)c3ccccc3oc2=O)N2CCOCC2)cc1 (stereo unspecified)
dose: 15.0 mg/kg/injection, schedule: Q01DX005 (ip), vehicle: saline with Tween-80
  T/C: 99 % of control
dose: 30.0 mg/kg/injection, schedule: Q01DX005 (ip), vehicle: saline with Tween-80
  T/C: 97 % of control
dose: 60.0 mg/kg/injection, schedule: Q01DX005 (ip), vehicle: saline with Tween-80
  T/C: 100 % of control and 94 % of control

## CC(C)(C)SC(=O)C1(C(O)c2ccccc2)CC1 (stereo unspecified)
[13]
  T/C: 106 % of control
[14]
  T/C: 115 % of control
[15]
  T/C: 112 % of control
